Source: patent publication US9340590B2 (priority 2011, dated 2016)
Where two headings read alike, the source gives them in different places. Positions of bridges follow the written chain, without caps; N, C: chain ends. Residues, ends and D or L forms follow the SMILES beside them.

How the values were obtained:
hNav1.7 = hNav1.7 (Homo sapiens, UniProt Q15858); experiment: cell-based; type: cell-based; settings: read-out: IWQ Use Nav1.7
hNav1.3 = hNav1.3 (Homo sapiens, UniProt Q9NY46); experiment: cell-based
hNav1.3, sequence (Q9NY46 whole entry, looked up): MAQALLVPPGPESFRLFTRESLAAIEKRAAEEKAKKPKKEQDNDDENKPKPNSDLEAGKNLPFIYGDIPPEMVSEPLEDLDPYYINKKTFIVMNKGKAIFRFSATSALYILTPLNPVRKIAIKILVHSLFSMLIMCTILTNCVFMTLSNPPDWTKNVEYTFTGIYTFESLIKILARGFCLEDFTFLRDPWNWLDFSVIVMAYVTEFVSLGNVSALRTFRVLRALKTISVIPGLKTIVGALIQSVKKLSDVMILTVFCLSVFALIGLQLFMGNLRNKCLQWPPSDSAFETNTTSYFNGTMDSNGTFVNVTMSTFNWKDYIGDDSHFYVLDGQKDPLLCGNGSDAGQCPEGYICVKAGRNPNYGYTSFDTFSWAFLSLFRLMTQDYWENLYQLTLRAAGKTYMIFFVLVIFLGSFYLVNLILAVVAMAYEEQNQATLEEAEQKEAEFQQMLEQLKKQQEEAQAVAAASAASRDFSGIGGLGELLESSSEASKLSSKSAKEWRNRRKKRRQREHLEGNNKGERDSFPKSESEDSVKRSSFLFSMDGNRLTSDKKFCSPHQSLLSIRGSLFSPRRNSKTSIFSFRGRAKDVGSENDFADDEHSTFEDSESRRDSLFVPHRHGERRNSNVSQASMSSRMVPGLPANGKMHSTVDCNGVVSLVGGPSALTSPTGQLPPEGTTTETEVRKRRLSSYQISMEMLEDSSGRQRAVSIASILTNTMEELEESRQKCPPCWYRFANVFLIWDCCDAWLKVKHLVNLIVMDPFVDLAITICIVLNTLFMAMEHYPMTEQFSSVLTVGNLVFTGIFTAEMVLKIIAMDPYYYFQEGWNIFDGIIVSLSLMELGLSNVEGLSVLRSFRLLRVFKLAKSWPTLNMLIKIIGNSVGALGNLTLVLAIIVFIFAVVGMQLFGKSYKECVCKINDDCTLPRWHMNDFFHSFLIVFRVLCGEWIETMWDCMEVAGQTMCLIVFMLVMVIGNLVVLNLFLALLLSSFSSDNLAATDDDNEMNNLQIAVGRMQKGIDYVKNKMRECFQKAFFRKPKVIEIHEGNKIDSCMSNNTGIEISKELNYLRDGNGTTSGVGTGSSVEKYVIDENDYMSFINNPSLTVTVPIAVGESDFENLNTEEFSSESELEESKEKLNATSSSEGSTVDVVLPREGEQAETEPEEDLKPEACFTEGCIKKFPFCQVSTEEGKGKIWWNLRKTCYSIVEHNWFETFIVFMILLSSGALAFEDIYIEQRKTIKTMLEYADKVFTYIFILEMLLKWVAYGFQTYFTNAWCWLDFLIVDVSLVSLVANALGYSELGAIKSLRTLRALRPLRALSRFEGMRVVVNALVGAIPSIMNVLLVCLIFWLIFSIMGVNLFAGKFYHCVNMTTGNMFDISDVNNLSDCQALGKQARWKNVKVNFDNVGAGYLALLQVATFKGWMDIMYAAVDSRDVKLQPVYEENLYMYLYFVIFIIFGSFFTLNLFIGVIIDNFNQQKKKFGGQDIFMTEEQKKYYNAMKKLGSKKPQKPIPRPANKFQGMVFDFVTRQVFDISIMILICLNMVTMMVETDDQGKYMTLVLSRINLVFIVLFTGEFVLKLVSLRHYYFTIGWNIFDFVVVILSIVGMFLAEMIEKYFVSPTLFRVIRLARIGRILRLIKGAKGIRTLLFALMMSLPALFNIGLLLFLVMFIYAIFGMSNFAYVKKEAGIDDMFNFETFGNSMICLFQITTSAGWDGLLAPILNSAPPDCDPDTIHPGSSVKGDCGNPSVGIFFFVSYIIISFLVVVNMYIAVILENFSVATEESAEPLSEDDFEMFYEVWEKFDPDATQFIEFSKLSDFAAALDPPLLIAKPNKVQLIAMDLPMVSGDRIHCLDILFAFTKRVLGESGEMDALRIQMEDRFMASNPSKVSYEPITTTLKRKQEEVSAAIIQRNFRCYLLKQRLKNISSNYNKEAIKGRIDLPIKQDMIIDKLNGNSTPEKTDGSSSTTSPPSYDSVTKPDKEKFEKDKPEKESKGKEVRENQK

hNav1.7, sequence (Q15858 whole entry, looked up): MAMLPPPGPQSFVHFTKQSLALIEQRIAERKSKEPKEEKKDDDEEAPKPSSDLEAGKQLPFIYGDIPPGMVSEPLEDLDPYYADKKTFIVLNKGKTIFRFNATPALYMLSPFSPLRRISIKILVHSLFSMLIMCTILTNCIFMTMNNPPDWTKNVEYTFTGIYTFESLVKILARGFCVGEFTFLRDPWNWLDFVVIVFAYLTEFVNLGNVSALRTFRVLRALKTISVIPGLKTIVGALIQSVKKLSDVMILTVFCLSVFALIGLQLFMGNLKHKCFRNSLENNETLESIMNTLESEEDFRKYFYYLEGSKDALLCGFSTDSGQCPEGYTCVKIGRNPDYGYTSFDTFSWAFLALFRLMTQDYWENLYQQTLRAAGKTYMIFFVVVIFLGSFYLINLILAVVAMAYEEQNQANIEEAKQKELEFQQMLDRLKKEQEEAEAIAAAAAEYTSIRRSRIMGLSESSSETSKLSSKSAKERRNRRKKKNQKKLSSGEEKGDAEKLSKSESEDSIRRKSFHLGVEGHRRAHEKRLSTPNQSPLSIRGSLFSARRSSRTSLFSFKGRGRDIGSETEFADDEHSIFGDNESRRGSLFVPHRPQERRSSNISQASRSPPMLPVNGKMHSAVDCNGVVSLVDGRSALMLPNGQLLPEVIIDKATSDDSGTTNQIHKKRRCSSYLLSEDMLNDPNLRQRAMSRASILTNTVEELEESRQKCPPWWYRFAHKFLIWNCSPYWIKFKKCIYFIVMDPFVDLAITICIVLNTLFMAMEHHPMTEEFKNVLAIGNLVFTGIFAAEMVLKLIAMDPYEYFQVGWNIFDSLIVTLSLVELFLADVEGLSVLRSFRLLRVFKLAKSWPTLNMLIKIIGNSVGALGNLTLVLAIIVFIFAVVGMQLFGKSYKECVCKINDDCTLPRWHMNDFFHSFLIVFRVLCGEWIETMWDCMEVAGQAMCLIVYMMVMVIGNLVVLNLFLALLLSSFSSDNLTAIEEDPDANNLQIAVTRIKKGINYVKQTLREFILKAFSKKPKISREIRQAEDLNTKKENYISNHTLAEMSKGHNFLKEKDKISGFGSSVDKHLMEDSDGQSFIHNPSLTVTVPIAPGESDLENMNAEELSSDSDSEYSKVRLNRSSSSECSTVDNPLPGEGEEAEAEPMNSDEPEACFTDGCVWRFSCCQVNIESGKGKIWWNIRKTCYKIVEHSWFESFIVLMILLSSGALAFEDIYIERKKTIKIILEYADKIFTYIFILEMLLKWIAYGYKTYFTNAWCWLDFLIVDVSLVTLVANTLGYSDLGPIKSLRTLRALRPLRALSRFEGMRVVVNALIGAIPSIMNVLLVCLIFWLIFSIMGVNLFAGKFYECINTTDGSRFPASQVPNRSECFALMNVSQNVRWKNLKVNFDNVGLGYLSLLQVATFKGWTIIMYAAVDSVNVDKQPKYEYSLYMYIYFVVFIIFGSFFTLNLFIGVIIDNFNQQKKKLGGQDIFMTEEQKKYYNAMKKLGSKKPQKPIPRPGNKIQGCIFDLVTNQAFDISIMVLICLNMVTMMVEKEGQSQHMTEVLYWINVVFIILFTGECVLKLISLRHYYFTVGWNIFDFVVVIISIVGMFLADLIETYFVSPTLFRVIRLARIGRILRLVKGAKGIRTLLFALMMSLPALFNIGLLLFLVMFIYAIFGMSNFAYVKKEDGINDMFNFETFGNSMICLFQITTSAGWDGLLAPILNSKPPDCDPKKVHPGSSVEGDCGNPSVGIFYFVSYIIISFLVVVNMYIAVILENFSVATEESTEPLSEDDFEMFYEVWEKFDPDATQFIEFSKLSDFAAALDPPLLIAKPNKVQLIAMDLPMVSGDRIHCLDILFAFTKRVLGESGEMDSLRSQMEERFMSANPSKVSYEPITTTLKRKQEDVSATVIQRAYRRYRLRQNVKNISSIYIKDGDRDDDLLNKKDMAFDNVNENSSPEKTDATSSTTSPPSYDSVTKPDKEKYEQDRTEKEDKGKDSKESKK

CC[C@H](C)[C@@H]1NC(=O)[C@@H]2CSSC[C@@H]3NC(=O)[C@H](C(C)C)NC(=O)[C@H](CC(C)C)NC(=O)[C@H](CC(N)=O)NC(=O)[C@@H]4CCCN4C(=O)[C@H](CCCNC(=N)N)NC(=O)[C@H](CSSC[C@H](NC(=O)[C@@H](N)CC(=O)O)C(=O)N[C@@H](CC(C)C)C(=O)NCC(=O)N[C@@H](Cc4ccccc4)C(=O)N[C@@H](CCSC)C(=O)N[C@@H](CCCNC(=N)N)C(=O)N[C@@H](CCCCN)C(=O)N2)NC(=O)[C@H](CSSC[C@@H](C(=O)N[C@@H](CCCCN)C(=O)N[C@@H](C)C(=O)N[C@H](C(=O)N[C@@H](Cc2ccccc2)C(N)=O)C(C)C)NC(=O)[C@H](Cc2c[nH]c4ccccc24)NC(=O)[C@H](CCCCN)NC(=O)[C@H](Cc2c[nH]cn2)NC(=O)[C@H]([C@@H](C)O)NC(=O)[C@H](CCCNC(=N)N)NC(=O)[C@H](CO)NC3=O)NC(=O)[C@H](CCCCN)NC(=O)[C@H](CC(=O)O)NC(=O)[C@H](CC(N)=O)NC(=O)[C@H](CC(=O)O)NC(=O)[C@@H]2CCCN2C1=O [compound 14] (H-DCLGFMRKCIPDNDKCCRPNLVCSRTHKWCKAVF-NH2; disulfide 2-17, 9-23, 16-30)
IC50 (hNav1.7): 800 nM

CC[C@H](C)[C@@H]1NC(=O)[C@@H]2CSSC[C@@H]3NC(=O)[C@H](C(C)C)NC(=O)[C@H](CC(C)C)NC(=O)[C@H](CCCNC(=N)N)NC(=O)[C@@H]4CCCN4C(=O)[C@H](CCCNC(=N)N)NC(=O)[C@H](CSSC[C@H](NC(=O)[C@@H](N)CC(=O)O)C(=O)N[C@@H](CC(C)C)C(=O)NCC(=O)N[C@@H](Cc4ccccc4)C(=O)N[C@@H](CCSC)C(=O)N[C@@H](CCCNC(=N)N)C(=O)N[C@@H](CCCCN)C(=O)N2)NC(=O)[C@H](CSSC[C@@H](C(=O)N[C@@H](CCCCN)C(=O)N[C@@H](Cc2ccc(O)cc2)C(=O)N[C@H](C(=O)N[C@@H](Cc2ccccc2)C(N)=O)C(C)C)NC(=O)[C@H](Cc2c[nH]c4ccccc24)NC(=O)[C@H](CCCCN)NC(=O)[C@H](Cc2c[nH]cn2)NC(=O)[C@H]([C@@H](C)O)NC(=O)[C@H](CCCNC(=N)N)NC(=O)[C@H](CO)NC3=O)NC(=O)[C@H](CCCCN)NC(=O)[C@H](CC(=O)O)NC(=O)[C@H](CC(N)=O)NC(=O)[C@H](CC(=O)O)NC(=O)[C@@H]2CCCN2C1=O [compound 69] (H-DCLGFMRKCIPDNDKCCRPRLVCSRTHKWCKYVF-NH2; disulfide 2-17, 9-23, 16-30)
IC50 (hNav1.7; IonWorks Quattro, Use): 170 nM

CC[C@H](C)[C@@H]1NC(=O)[C@@H]2CSSC[C@@H]3NC(=O)[C@H](C(C)C)NC(=O)[C@H](CC(C)C)NC(=O)[C@H](CC(N)=O)NC(=O)[C@@H]4CCCN4C(=O)[C@H](CCCNC(=N)N)NC(=O)[C@H](CSSC[C@H](NC(=O)[C@@H](N)CC(=O)O)C(=O)N[C@@H](CC(C)C)C(=O)NCC(=O)N[C@@H](Cc4ccccc4)C(=O)N[C@@H](CCSC)C(=O)N[C@@H](CCCNC(=N)N)C(=O)N[C@@H](CCCCN)C(=O)N2)NC(=O)[C@H](CSSC[C@@H](C(=O)N[C@@H](CCCCN)C(=O)N[C@@H](Cc2ccc(O)cc2)C(=O)N[C@H](C(=O)N[C@@H](Cc2ccccc2)C(N)=O)C(C)C)NC(=O)[C@H](Cc2c[nH]c4ccccc24)NC(=O)[C@H](CCC(=O)O)NC(=O)[C@H](Cc2c[nH]cn2)NC(=O)[C@H]([C@@H](C)O)NC(=O)[C@H](CCCNC(=N)N)NC(=O)[C@H](CO)NC3=O)NC(=O)[C@H](CCCCN)NC(=O)[C@H](CC(=O)O)NC(=O)[C@H](CC(N)=O)NC(=O)[C@H](CC(=O)O)NC(=O)[C@@H]2CCCN2C1=O [SEQ ID NO: 153, [Glu28]GpTx-1(1-34)] (H-DCLGFMRKCIPDNDKCCRPNLVCSRTHEWCKYVF-NH2; disulfide 2-17, 9-23, 16-30)
IC50 (hNav1.7; Table 23, IonWorks Quattro, use, […]): 340 nM

CC[C@H](C)[C@@H]1NC(=O)[C@@H]2CSSC[C@@H]3NC(=O)[C@H](C(C)C)NC(=O)[C@H](CC(C)C)NC(=O)[C@H](CC(N)=O)NC(=O)[C@@H]4CCCN4C(=O)[C@H](CCCNC(=N)N)NC(=O)[C@H](CSSC[C@H](NC(=O)[C@@H](N)CC(=O)O)C(=O)N[C@@H](CCC(=O)O)C(=O)NCC(=O)N[C@@H](Cc4ccccc4)C(=O)N[C@@H](CCSC)C(=O)N[C@@H](CCCNC(=N)N)C(=O)N[C@@H](CCCCN)C(=O)N2)NC(=O)[C@H](CSSC[C@@H](C(=O)N[C@@H](CCCCN)C(=O)N[C@@H](Cc2ccc(O)cc2)C(=O)N[C@H](C(=O)N[C@@H](Cc2ccccc2)C(N)=O)C(C)C)NC(=O)[C@H](Cc2c[nH]c4ccccc24)NC(=O)[C@H](CCCCN)NC(=O)[C@H](Cc2c[nH]cn2)NC(=O)[C@H]([C@@H](C)O)NC(=O)[C@H](CCCNC(=N)N)NC(=O)[C@H](CO)NC3=O)NC(=O)[C@H](CCCCN)NC(=O)[C@H](CC(=O)O)NC(=O)[C@H](CC(N)=O)NC(=O)[C@H](CC(=O)O)NC(=O)[C@@H]2CCCN2C1=O [SEQ ID NO: 19] (H-DCEGFMRKCIPDNDKCCRPNLVCSRTHKWCKYVF-NH2; disulfide 2-17, 9-23, 16-30)
IC50 (hNav1.7; IonWorks Quattro, clamped to −110 mV, depolarized to −10 mV, 5 min after compound, n=2): 670 nM

CC[C@H](C)[C@@H]1NC(=O)[C@@H]2CSSC[C@@H]3NC(=O)[C@H](C(C)C)NC(=O)[C@H](CC(C)C)NC(=O)[C@H](CC(N)=O)NC(=O)[C@@H]4CCCN4C(=O)[C@H](CCCNC(=N)N)NC(=O)[C@H](CSSC[C@H](NC(=O)[C@@H](N)CC(=O)O)C(=O)N[C@@H](CC(C)C)C(=O)NCC(=O)N[C@@H](Cc4ccccc4)C(=O)N[C@@H](Cc4ccccc4)C(=O)N[C@@H](CCCNC(=N)N)C(=O)N[C@@H](CCCCN)C(=O)N2)NC(=O)[C@H](CSSC[C@@H](C(=O)N[C@@H](CCCCN)C(=O)N[C@@H](Cc2cn(CCOCCOCCOCCOCCOCCOCCOCCOCCOCCOCCN)nn2)C(=O)N[C@H](C(=O)N[C@@H](Cc2cccc4ccccc24)C(N)=O)C(C)C)NC(=O)[C@H](Cc2c[nH]c4ccccc24)NC(=O)[C@H](CCCCN)NC(=O)[C@H](Cc2c[nH]cn2)NC(=O)[C@H]([C@@H](C)O)NC(=O)[C@H](CCCNC(=N)N)NC(=O)[C@H](CO)NC3=O)NC(=O)[C@H](CCCCN)NC(=O)[C@H](CC(=O)O)NC(=O)[C@H](CC(N)=O)NC(=O)[C@H](CC(=O)O)NC(=O)[C@@H]2CCCN2C1=O [compound 559]
Nav1.7/Nav1.3 (hNav1.3; ratio of IWQ Use IC50 values): 2.3

CSCC[C@@H]1NC(=O)[C@H](Cc2ccccc2)NC(=O)CNC(=O)[C@H](CC(C)C)NC(=O)[C@@H](NC(=O)[C@@H](N)CC(=O)O)CSSC[C@@H]2NC(=O)[C@@H]3CSSC[C@@H](C(=O)N[C@@H](CCCCN)C(=O)N[C@@H](Cc4ccc(O)cc4)C(=O)N[C@H](C(=O)N[C@@H](Cc4ccccc4)C(N)=O)C(C)C)NC(=O)[C@H](Cc4c[nH]c5ccccc45)NC(=O)[C@H](CCCCN)NC(=O)[C@H](Cc4cnc[nH]4)NC(=O)[C@H]([C@@H](C)O)NC(=O)[C@H](CCCNC(=N)N)NC(=O)[C@H](CO)NC(=O)[C@H](CSSC[C@H](NC(=O)[C@H](CCCCN)NC(=O)[C@H](CCCNC(=N)N)NC1=O)C(=O)N[C@@H](CCSC)C(=O)N1CCC[C@H]1C(=O)N[C@@H](CC(=O)O)C(=O)N[C@@H](CC(N)=O)C(=O)N[C@@H](CC(=O)O)C(=O)N[C@@H](CCCCN)C(=O)N3)NC(=O)[C@H](C(C)C)NC(=O)[C@H](CC(C)C)NC(=O)[C@H](CC(N)=O)NC(=O)[C@@H]1CCCN1C(=O)[C@H](CCCNC(=N)N)NC2=O [compound 307] (H-DCLGFMRKCMPDNDKCCRPNLVCSRTHKWCKYVF-NH2; disulfide 2-17, 9-23, 16-30)
IC50 (hNav1.3; IonWorks Quattro, Use, read-out: IWQ Use Nav1.3): 100 nM
